Source: patent publication US20240174680A1, “CDK2 INHIBITORS AND METHODS OF USING THE SAME” (Cedilla Therapeutics, Inc., priority 2021, published 2024)

Biological target: CDK2/Cyclin E1 (Homo sapiens, UniProt P24941)
Assay: CDK2/Cyclin E1 Caliper LabChip EZ Reader mobility shift assay
Format: biochemical
Design: purchased Eurofins 14-475
Conditions: read-out: Caliper Assay (CDK2/CCNE1): IC50
Outline: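 Substrate-to-product conversion of fluorescent peptide (1.5 μM final) read by capillary electrophoresis after 100 min reaction, EDTA-quenched. Enzyme (2.5 nM final) and ATP (100 μM final) were preincubated 30 min with inhibitor dilutions first. % activity vs concentration fitted four-parameter for IC50.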

IC50 [µM]	SMILES
> 10	CC(=O)N1C[C@@H](C(=O)N[C@H](C(=O)N2CCCCC2)[C@@H](C)OCC2CCCCC2)C2(C1)CN(C(=O)[C@H]1CC1(C)C)C2 [I-118]
1 to 10	[2H]C([2H])([2H])NC(=O)C(NC(=O)[C@@H]1CN(C(=O)c2cncs2)CC12CN(C(=O)[C@H]1CC1(C)C)C2)c1cccc(N2CCOCC2)n1 (stereo partly shown) [I-18]
0.1 to 1	CNC(=O)[C@@H](NC(=O)[C@H]1CN(C(=O)c2cnn(Cc3ccc(F)cc3)c2)CC12CN(C(=O)[C@H]1CC1(C)C)C2)[C@@H](C)OCC1CCC(F)(F)CC1 [I-167]
0.1 to 1	C[C@@H](OCC1CCCCC1)[C@@H](CO)NC(=O)[C@H]1CN(C(=O)c2cnn(Cc3ccccc3)c2)CC12CN(C(=O)[C@H]1CC1(C)C)C2 [I-135B]
> 10	CNC(=O)[C@@H](NC(=O)[C@@H]1CN(C(=O)c2cnn(Cc3ccccc3)c2)CC12CN(C(=O)CC1(CO)CC1)C2)[C@@H](C)OCc1ccccc1 [I-92A]
0.1 to 1	C[C@@H]1C[C@H](C)CN(C(=O)[C@@H](NC(=O)C2CN(C(=O)c3cn[nH]c3)CC23CN(C(=O)[C@H]2CC2(C)C)C3)[C@@H](C)OCc2ccccc2)C1 (stereo partly shown) [I-124]
0.1 to 1	CNC(=O)C(NC(=O)[C@@H]1CN(C(=O)c2cncs2)CC12CN(C(=O)[C@H]1CC1(C)C)C2)c1cccc(N2CCCCC2)n1 (stereo partly shown) [I-432]
0.1 to 1	CNC(=O)[C@@H](NC(=O)C1CN(C(=O)c2cnn(Cc3cccnc3)c2)CC12CN(C(=O)C1CC1(C)C)C2)[C@@H](C)OCc1ccccc1 (stereo partly shown) [I-15]
≤ 0.01	C[C@@H](OCC12CCC(CC1)OC2)[C@H](NC(=O)[C@@H]1CN(C(=O)c2cncs2)CC12CN(C(=O)[C@H]1CC1(C)C)C2)C(=O)N1CCC[C@H](COC(F)F)C1 [I-461]
0.1 to 1	COC[C@H]1CCCN(C(=O)[C@@H](NC(=O)[C@@H]2CN(C(=O)c3cncs3)CC23CN(C(=O)C(C)(C)C2CC2)C3)[C@@H](C)OC[C@H]2CC[C@H](O)CC2)C1 [I-431]
0.01 to 0.1	COCC1CCCN(C(=O)[C@@H](NC(=O)C2CN(C(=O)c3cnn(Cc4ccccc4)c3)CC23CN(C(=O)[C@H]2CC2(C)C)C3)[C@@H](C)OCc2ccccc2)C1 (stereo partly shown) [I-64]
1 to 10	C[C@@H](OCC1CCCCC1)[C@H](NC(=O)[C@H]1CN(C(=O)c2cn[nH]c2)CC12CN(C(=O)[C@H]1CC1(C)C)C2)C(=O)N1CCC(F)(F)CC1 [I-154B]
> 10	CC1(C)C[C@@H]1C(=O)N1CC2(CN(C(=O)c3cnn(Cc4ccccc4)c3)C[C@H]2C(=O)NCc2cccnn2)C1 [I-359]
≤ 0.01	C[C@@H](OCC12CCC(CC1)OC2)[C@H](NC(=O)[C@@H]1CN(C(=O)c2cncs2)CC12CN(C(=O)[C@H]1CC1(C)C)C2)C(=O)N1CCC2(CC1)COC2 [I-336]
1 to 10	Cc1n[nH]c(C(=O)N2C[C@@H](C(=O)N[C@H](C(=O)N3CCCCC3)[C@@H](C)OCC3CCCCC3)C3(C2)CN(C(=O)[C@H]2CC2(C)C)C3)n1 [I-241]
> 10	COCCNC(=O)[C@H]1CN(C(=O)c2cnn(Cc3ccccc3)c2)CC12CN(C(=O)[C@H]1CC1(C)C)C2 [I-122B]
0.1 to 1	CNC(=O)[C@@H](NC(=O)[C@H]1CN(C(=O)c2sc(Cl)nc2C)CC12CN(C(=O)[C@H]1CC1(C)C)C2)[C@@H](C)OCC1CCCCC1 [I-208B]
> 10	CNC(=O)[C@@H](NC(=O)[C@H]1CN(C(=O)c2cnn(Cc3ccccc3)c2)CC12CN(C(=O)C1(CC3CC3)CC1)C2)[C@@H](C)OCc1ccccc1 [I-116B]
0.1 to 1	CNC(=O)[C@@H](NC(=O)[C@@H]1CN(C(=O)c2sc(C(C)C)nc2C)CC12CN(C(=O)[C@H]1CC1(C)C)C2)[C@@H](C)OCC1CCCCC1 [I-227A]
> 10	CNC(=O)[C@@H](NC(=O)[C@H]1CN(C(=O)c2cnn(CC3CCNCC3)c2)CC12CN(C(=O)[C@H]1CC1(C)C)C2)[C@@H](C)OCc1ccccc1 [I-19B]
> 10	CNC(=O)[C@@H](NC(=O)[C@H]1CN(C(=O)c2cnn(Cc3ccccc3)c2)CC12CN(C(=O)C(C)(C)C)C2)[C@@H](C)OCc1ccccc1 [I-65B]
> 10	CCC(CC)C(=O)N1CC2(CN(C(=O)c3cnn(Cc4ccccc4)c3)C[C@@H]2C(=O)N[C@H](C(=O)NC)[C@@H](C)OCc2ccccc2)C1 [I-74B]
1 to 10	CCCC(=O)N1CC2(C1)CN(C(=O)c1cnn(Cc3ccccc3)c1)C[C@H]2C(=O)N[C@H](C(=O)NC)[C@@H](C)OCc1ccccc1 [I-60A]
> 10	CNC(=O)[C@@H](NC(=O)[C@@H]1CN(Cc2cnn(C)c2)CC12CN(C(=O)[C@H]1CC1(C)C)C2)[C@@H](C)OCc1ccccc1 [I-47A]
0.01 to 0.1	C[C@@H](OCc1ccccc1)[C@H](NC(=O)C1CN(C(=O)c2cnn(Cc3ccccc3)c2)CC12CN(C(=O)[C@H]1CC1(C)C)C2)C(=O)NCC#CCO (stereo partly shown) [I-20]

IC50 [µM]	SMILES
0.1 to 1	C[C@@H](OCC1CCCCC1)[C@H](NC(=O)[C@H]1CN(C(=O)c2cnn(Cc3ccccc3)c2)CC12CN(C(=O)[C@H]1CC1(C)C)C2)C(=O)N1CCC(F)(F)CC1 [I-149B]
1 to 10	CNC(=O)[C@@H](NC(=O)[C@@H]1CN(C(=O)c2cnn(Cc3ccccc3)c2)CC12CN(C(=O)[C@H]1CC1(C)C)C2)[C@@H](C)OCC(F)(F)F [I-204]
> 10	CNC(=O)[C@@H](NC(=O)[C@@H]1CN(C(=O)c2cnn(CC(F)(F)F)c2)CC12CN(C(=O)CC1CC1)C2)[C@@H](C)OCc1ccccc1 [I-43A]
0.1 to 1	COC[C@H]1CCCN(C(=O)[C@@H](NC(=O)[C@@H]2CN(C(=O)c3cncs3)CC23CN(S(=O)(=O)C(C)(C)C)C3)[C@@H](C)OCC2CCCCC2)C1 [I-447, (S)-2-(tert-butylsulfonyl)-N-((2S,3R)-3-(cyclohexylmethoxy)-1-((S)-3-(methoxymethyl)piperidin-1-yl)-1-oxobutan-2-yl)-6-(thiazole-5-carbonyl)-2,6-diazaspiro[3.4]octane-8-carboxamide]
> 10	COC(=O)C1(NC(=O)[C@@H]2CN(C(=O)c3cnn(Cc4ccccc4)c3)CC23CN(C(=O)[C@H]2CC2(C)C)C3)COC1 [I-142B]
0.1 to 1	CNC(=O)C(NC(=O)[C@@H]1CN(C(=O)c2cncs2)CC12CN(C(=O)[C@H]1CC1(C)C)C2)c1nc(C2CCCCC2)co1 (stereo partly shown) [I-425]
1 to 10	COC[C@H]1CCCN(C(=O)CNC(=O)[C@@H]2CN(C(=O)c3cncs3)CC23CN(C(=O)[C@H]2CC2(C)C)C3)C1 [I-323]
≤ 0.01	C[C@@H](OCC1CCCCC1)[C@H](NC(=O)[C@@H]1CN(C(=O)c2cnn(Cc3ccccc3)c2)CC12CN(C(=O)[C@H]1CC1(C)C)C2)C(=O)N1CCC(c2cnc[nH]2)CC1 [I-438]
0.1 to 1	CNC(=O)[C@@H](NC(=O)[C@@H]1CN(C(=O)c2cnn(Cc3ccccc3)c2)CC12CN(C(=O)[C@H]1CC1(C)C)C2)[C@@H](C)OC[C@H]1CC[C@H](O)CC1 [I-413]
0.1 to 1	CNC(=O)[C@@H](NC(=O)[C@@H]1CN(C(=O)c2cnn(CC3CCNCC3)c2)CC12CN(C(=O)[C@H]1CC1(C)C)C2)[C@@H](C)OCc1ccccc1 [I-19A]
≤ 0.01	COC[C@H]1CCCN(C(=O)[C@@H](NC(=O)[C@@H]2CN(C(=O)c3cncs3)CC23CN(C(=O)[C@H]2CC2(C)C)C3)[C@@H](C)O[C@@H](C)C2CCCCC2)C1 [I-467]
1 to 10	CC1(C)C[C@@H]1C(=O)N1CC2(CN(C(=O)c3cnn(Cc4ccccc4)c3)C[C@@H]2C(=O)N2CCC(Cc3ccccc3)CC2)C1 [I-58B]
0.01 to 0.1	C[C@@H](OCC1CCCCC1)[C@@H](COC(F)(F)F)NC(=O)[C@@H]1CN(C(=O)c2cnn(Cc3ccccc3)c2)CC12CN(C(=O)[C@H]1CC1(C)C)C2 [I-309]
0.1 to 1	CNC(=O)[C@@H](NC(=O)C1(F)CN(C(=O)c2cnn(Cc3ccccc3)c2)CC12CN(C(=O)[C@H]1CC1(C)C)C2)[C@@H](C)OCc1ccccc1 (stereo partly shown) [I-500]
0.1 to 1	C[C@@H](OCC12CCC(CC1)OC2)[C@H](NC(=O)[C@@H]1CN(C(=O)c2cnco2)CC12CN(C(=O)[C@H]1CC1(C)C)C2)C(C)(C)O [I-450]
> 10	CO[C@H]1COCC[C@@H]1NC(=O)[C@@H]1CN(C(=O)c2cnn(Cc3ccccc3)c2)CC12CN(C(=O)[C@H]1CC1(C)C)C2 [I-148A]
> 10	Cc1noc([C@H](C)NC(=O)[C@H]2CN(C(=O)c3cnn(Cc4ccccc4)c3)CC23CN(C(=O)[C@H]2CC2(C)C)C3)n1 [I-158B]
0.01 to 0.1	C[C@@H](OCc1ccccc1)[C@H](NC(=O)C1CN(C(=O)c2cnn(Cc3ccccc3)c2)CC12CN(C(=O)[C@H]1CC1(C)C)C2)C(=O)N1CCCCC1 (stereo partly drawn) [I-97, 6-(1-benzyl-1H-pyrazole-4-carbonyl)-N-((2S,3R)-3-(benzyloxy)-1-oxo-1-(piperidin-1-yl)butan-2-yl)-2-((S)-2,2-dimethylcyclopropanecarbonyl)-2,6-diazaspiro[3.4]octane-8-carboxamide]
0.01 to 0.1	CNC(=O)[C@@H](NC(=O)[C@@H]1CN(C(=O)c2cnn(Cc3ccccc3)c2)CC12CN(C(=O)C(C)(C)C)C2)[C@@H](C)OCC1CCCCC1 [I-174A]
> 10	CNC(=O)[C@@H](NC(=O)[C@@H]1CN(C(=O)c2cnn(Cc3ccccc3)c2)CC12CN(C(=O)[C@H]1CC1(C)C)C2)[C@@H](C)O [I-88A, (S)-6-(1-benzyl-1H-pyrazole-4-carbonyl)-2-((S)-2,2-dimethylcyclopropane-1-carbonyl)-N-((2S,3R)-3-hydroxy-1-(methylamino)-1-oxobutan-2-yl)-2,6-diazaspiro[3.4]octane-8-carboxamide]
1 to 10	CNC(=O)[C@@H](NC(=O)[C@@H]1CN(C(=O)c2cnn(Cc3ccccc3)c2)CC12CN(C(=O)C1C(C)(C)C1(C)C)C2)[C@@H](C)OCc1ccccc1 [I-89A]
0.01 to 0.1	C[C@@H]1C[C@H](C)CN(C(=O)[C@@H](NC(=O)C2CN(C(=O)c3cnn(Cc4ccccc4)c3)CC23CN(C(=O)[C@H]2CC2(C)C)C3)[C@@H](C)OCc2ccccc2)C1 (stereo partly shown) [I-22]
> 10	CC1(C)C[C@@H]1C(=O)N1CC2(CN(C(=O)c3cnn(Cc4ccccc4)c3)C[C@H]2C(=O)NCC2CCCCO2)C1 (stereo partly shown) [I-221]
0.1 to 1	CNC(=O)C(NC(=O)[C@@H]1CN(C(=O)c2cncs2)CC12CN(C(=O)[C@H]1CC1(C)C)C2)c1cccc(N2CC3(CC(C(F)(F)F)C3)C2)n1 (stereo partly shown) [I-430]
